Measurements reported in US9758524B2, “4-imidazopyridazin-1-yl-benzamides as Btk inhibitors” (Merck Sharp & Dohme B.V., priority 2011, dated 2017).
Read-outs that look alike come from different tables or passages of the source.

Legend:
[1] = target: Btk enzyme (His-Btk) (Homo sapiens (Human), UniProt Q06187); test: Btk enzyme activity (IMAP fluorescence polarization assay)
[2] = target: Src enzyme (Homo sapiens (Human), UniProt P12931); test: Src enzyme activity (IMAP fluorescence polarization assay); conditions: read-out: EC50 Src activity values; IMAP, 60 min pre-incubation, 4 μM ATP
[3] = target: FynT enzyme (Homo sapiens (Human), UniProt P06241); test: FynT enzyme activity (IMAP fluorescence polarization assay); assay type: biochemical; conditions: 60 min pre-incubation, 0.2 μM ATP
Method in brief: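 Human FynT pre-incubated with compounds 60 min at room temperature, then reacted 2 h at room temperature with fluorescein-labelled p34cdc2 peptide (100 nM final). Stopped with IMAP binding solution; fluorescence polarization read after 60 min. Activity as % of ±ATP control difference; EC50 by curve fitting.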

[4] = target: Lyn enzyme (Homo sapiens (Human), UniProt P07948); test: Lyn enzyme activity (IMAP fluorescence polarization assay)
[5] = target: Lck enzyme (Homo sapiens (Human), UniProt P06239); test: Lck enzyme activity (IMAP fluorescence polarization assay)
[6] = IMAP, 60 min pre-incubation, 5 μM ATP, bin bound in μM
[7] = read-out: EC50 Lyn activity values, 60 min pre-incubation, 2 μM ATP, bin bound in μM
[8] = read-out: EC50 Lck activity values, IMAP, 60 min pre-incubation, 6 μM ATP, bin bound in μM
[9] = IMAP, 60 min pre-incubation, 5 μM ATP, bin bound in nM
[10] = read-out: EC50 Btk activity values, IMAP, 60 min pre-incubation, 5 μM ATP, bin bound in nM

Sequence of Lyn enzyme (P07948 whole entry): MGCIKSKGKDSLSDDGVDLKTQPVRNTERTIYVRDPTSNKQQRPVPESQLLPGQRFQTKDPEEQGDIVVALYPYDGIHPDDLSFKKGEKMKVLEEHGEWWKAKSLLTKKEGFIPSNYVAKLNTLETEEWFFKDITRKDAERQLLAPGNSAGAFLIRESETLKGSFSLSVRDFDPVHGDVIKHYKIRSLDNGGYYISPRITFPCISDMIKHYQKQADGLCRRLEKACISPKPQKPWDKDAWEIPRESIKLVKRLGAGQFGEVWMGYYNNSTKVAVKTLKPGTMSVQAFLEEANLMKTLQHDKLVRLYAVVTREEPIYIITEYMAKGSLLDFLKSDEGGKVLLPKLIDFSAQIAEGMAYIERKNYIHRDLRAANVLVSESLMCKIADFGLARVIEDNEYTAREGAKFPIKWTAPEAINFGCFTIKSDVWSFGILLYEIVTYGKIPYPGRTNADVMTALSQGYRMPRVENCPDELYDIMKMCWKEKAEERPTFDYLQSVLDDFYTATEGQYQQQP
Sequence of FynT enzyme (P06241 other isoform, or with tags, fused parts or gaps): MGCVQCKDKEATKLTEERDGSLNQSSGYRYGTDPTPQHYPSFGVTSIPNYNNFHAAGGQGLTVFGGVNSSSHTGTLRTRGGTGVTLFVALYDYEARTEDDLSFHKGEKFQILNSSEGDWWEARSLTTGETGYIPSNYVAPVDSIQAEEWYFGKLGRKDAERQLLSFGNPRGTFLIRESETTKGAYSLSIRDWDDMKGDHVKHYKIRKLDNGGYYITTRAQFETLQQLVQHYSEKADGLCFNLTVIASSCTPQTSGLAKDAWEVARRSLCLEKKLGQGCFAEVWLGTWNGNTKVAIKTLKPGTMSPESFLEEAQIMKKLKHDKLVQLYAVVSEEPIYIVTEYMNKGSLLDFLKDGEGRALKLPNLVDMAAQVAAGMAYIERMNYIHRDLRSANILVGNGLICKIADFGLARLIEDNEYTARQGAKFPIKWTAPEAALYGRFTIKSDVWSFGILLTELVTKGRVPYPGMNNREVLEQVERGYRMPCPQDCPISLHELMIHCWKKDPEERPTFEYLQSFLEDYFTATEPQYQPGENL
Sequence of Lck enzyme (P06239 whole entry): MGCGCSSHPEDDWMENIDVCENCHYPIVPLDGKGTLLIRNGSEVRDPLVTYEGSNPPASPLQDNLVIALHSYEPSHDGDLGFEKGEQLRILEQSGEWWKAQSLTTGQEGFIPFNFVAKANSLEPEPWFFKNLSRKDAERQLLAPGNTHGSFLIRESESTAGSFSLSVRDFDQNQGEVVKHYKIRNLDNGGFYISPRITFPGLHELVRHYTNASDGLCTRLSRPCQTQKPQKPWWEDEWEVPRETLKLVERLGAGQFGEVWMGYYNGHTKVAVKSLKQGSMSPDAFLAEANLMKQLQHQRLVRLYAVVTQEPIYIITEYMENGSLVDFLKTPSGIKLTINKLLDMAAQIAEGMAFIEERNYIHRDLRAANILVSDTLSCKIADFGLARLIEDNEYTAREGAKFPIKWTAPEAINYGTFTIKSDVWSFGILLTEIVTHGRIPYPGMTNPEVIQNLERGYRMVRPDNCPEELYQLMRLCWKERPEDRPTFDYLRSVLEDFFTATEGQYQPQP
Sequence of Btk enzyme (His-Btk) (Q06187 whole entry): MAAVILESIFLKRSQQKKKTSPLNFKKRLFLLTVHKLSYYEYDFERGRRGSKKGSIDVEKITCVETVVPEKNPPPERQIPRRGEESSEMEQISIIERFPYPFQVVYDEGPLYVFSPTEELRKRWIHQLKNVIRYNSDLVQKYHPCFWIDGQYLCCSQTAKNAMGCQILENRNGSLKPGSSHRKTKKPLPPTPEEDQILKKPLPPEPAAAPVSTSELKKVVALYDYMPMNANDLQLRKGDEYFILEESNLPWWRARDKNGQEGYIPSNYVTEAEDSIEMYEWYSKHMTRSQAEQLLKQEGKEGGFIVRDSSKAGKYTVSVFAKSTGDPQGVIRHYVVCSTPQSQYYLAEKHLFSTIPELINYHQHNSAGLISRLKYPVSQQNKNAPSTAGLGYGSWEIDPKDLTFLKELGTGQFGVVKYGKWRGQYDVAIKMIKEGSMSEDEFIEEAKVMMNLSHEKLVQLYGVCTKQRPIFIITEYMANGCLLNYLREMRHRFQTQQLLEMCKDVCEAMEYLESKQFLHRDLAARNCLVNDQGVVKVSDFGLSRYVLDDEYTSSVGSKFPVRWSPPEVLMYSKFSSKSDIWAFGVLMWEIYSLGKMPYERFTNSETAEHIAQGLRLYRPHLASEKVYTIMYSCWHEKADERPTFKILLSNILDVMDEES
Sequence of Src enzyme (P12931 whole entry, looked up): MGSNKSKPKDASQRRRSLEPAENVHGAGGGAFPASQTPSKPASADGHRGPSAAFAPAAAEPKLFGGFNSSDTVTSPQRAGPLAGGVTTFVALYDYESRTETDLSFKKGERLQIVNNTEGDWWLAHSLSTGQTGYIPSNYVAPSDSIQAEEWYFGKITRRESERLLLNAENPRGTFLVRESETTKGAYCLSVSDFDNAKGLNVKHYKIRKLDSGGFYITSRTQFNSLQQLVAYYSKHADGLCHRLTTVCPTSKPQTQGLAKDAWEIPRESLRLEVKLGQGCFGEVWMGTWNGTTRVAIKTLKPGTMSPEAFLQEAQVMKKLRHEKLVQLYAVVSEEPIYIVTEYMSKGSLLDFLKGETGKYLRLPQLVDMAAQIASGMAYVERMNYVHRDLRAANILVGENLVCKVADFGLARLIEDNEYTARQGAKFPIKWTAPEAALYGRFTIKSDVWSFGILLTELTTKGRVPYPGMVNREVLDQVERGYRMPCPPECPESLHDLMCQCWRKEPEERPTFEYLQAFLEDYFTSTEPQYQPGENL

| SMILES | EC50 [1] [nM] | EC50 Btk activity values [1, 6] [µM] | EC50 [2] [nM] | EC50 [3] [nM] | EC50 [4, 7] [µM] | EC50 [5, 8] [µM] | EC50 Btk activity values [1, 9] [µM] | EC50 [1, 10] [nM] | EC50 [5] [µM] | EC50 Lck activity values ([5]; IMAP, 60 min pre-incubation, 6 μM ATP, bin bound in μM) [µM] | EC50 ([4]; EC50 Lyn activity values, 60 min pre-incubation, 2 μM ATP, bin bound in μM) [µM] |
| --- | --- | --- | --- | --- | --- | --- | --- | --- | --- | --- | --- |
| C=C(C(=O)N1CCC[C@H]1c1nc(-c2ccc(C(=O)Nc3ccccn3)cc2)c2c(N)nccn12)C(F)(F)F [Example 92, (S)-4-(8-amino-3-(1-(2-(trifluoromethyl)acryloyl)pyrrolidin-2-yl)imidazo[1,5-a]pyrazin-1-yl)-N-(pyridin-2-yl)benzamide] | 100 to 1000 | <1 | ≥ 1000 | ≥ 1000 | ≥ 1 | ≥ 1 |  |  |  |  |  |
| N#CCN1CCC[C@H]1c1nc(-c2ccc(C(=O)Nc3ccccn3)cc2)c2c(N)nccn12 [Example 94, (S)-4-(8-amino-3-(1-(cyanomethyl)pyrrolidin-2-yl)imidazo[1,5-a]pyrazin-1-yl)-N-(pyridin-2-yl)benzamide] | 100 to 1000 | <1 | ≥ 1000 | ≥ 1000 | ≥ 1 | ≥ 1 |  |  |  |  |  |
| COC/C=C/C(=O)NCc1nc(-c2ccc(C(=O)Nc3ccccn3)cc2)c2c(N)nccn12 [Example 95, (E)-4-(8-amino-3-((4-methoxybut-2-enamido)methyl)imidazo[1,5-a]pyrazin-1-yl)-N-(pyridin-2-yl)benzamide] | 10 to 100 |  | ≥ 1000 | ≥ 1000 | ≥ 1 | ≥ 1 | <0.1 |  |  |  |  |
| CC#CC(=O)N1CCC[C@H]1c1nc(-c2ccc(C(=O)Nc3cc(N4CCCC4)ccn3)cc2)c2c(N)nccn12 [Example 96, (S)-4-(8-amino-3-(1-but-2-ynoylpyrrolidin-2-yl)imidazo[1,5-a]pyrazin-1-yl)-N-(4-(pyrrolidin-1-yl)pyridin-2-yl)benzamide] | 10 to 100 |  | ≥ 1000 | ≥ 1000 | ≥ 1 | ≥ 1 | <0.1 |  |  |  |  |
| COC/C=C/C(=O)N1CCCCC[C@H]1c1nc(-c2ccc(C(=O)Nc3ccccn3)cc2)c2c(N)nccn12 [Example 97, (E)-4-(8-amino-3-(1-(4-methoxybut-2-enoyl)azepan-2-yl)imidazo[1,5-a]pyrazin-1-yl)-N-(pyridin-2-yl)benzamide] | 10 to 100 |  | ≥ 1000 | ≥ 1000 | ≥ 1 | ≥ 1 | <0.1 |  |  |  |  |
| COC/C=C/C(=O)N1CCC[C@H]1c1nc(-c2ccc(C(=O)Nc3cc(C#N)ccn3)cc2)c2c(N)nccn12 [Example 98, (S,E)-4-(8-amino-3-(1-(4-methoxybut-2-enoyl)pyrrolidin-2-yl)imidazo[1,5-a]pyrazin-1-yl)-N-(4-cyanopyridin-2-yl)benzamide] | 10 to 100 |  | ≥ 1000 | ≥ 1000 | ≥ 1 | ≥ 1 | <0.1 |  |  |  |  |
| CC#CC(=O)N1CCC[C@H]1c1nc(-c2ccc(C(=O)Nc3ccccn3)c(OC)c2)c2c(N)nccn12 [Example 99, (S)-4-(8-amino-3-(1-but-2-ynoylpyrrolidin-2-yl)imidazo[1,5-a]pyrazin-1-yl)-2-methoxy-N-(pyridin-2-yl)benzamide] | 10 to 100 |  | ≥ 1000 | ≥ 1000 | ≥ 1 | ≥ 1 | <0.1 |  |  |  |  |
| C=CC(=O)N[C@@H](C)c1nc(-c2ccc(C(=O)Nc3ccccn3)cc2)c2c(N)nccn12 [Example 100, (S)-4-(3-(1-acrylamidoethyl)-8-aminoimidazo[1,5-a]pyrazin-1-yl)-N-(pyridin-2-yl)benzamide] |  |  | ≥ 1000 | ≥ 1000 | ≥ 1 | ≥ 1 |  | < 10 |  |  |  |
| C=CC(=O)N1CCC[C@H]1c1nc(-c2ccc(C(=O)Nc3nccs3)cc2)c2c(N)nccn12 [Example 101, (S)-4-(3-(1-acryloylpyrrolidin-2-yl)-8-aminoimidazo[1,5-a]pyrazin-1-yl)-N-(thiazol-2-yl)benzamide] |  |  | ≥ 1000 | ≥ 1000 | ≥ 1 | ≥ 1 |  | < 10 |  |  |  |
| CC#CC(=O)N1CCC[C@H]1c1nc(-c2ccc(C(=O)Nc3cc(C(C)C)ccn3)cc2)c2c(N)nccn12 [Example 102, (S)-4-(8-amino-3-(1-but-2-ynoylpyrrolidin-2-yl)imidazo[1,5-a]pyrazin-1-yl)-N-(4-isopropylpyridin-2-yl)benzamide] |  |  | ≥ 1000 | ≥ 1000 | ≥ 1 | ≥ 1 |  | < 10 |  |  |  |
| COC/C=C/C(=O)N1CCC[C@H]1c1nc(-c2ccc(C(=O)Nc3ccccn3)c(OC)c2)c2c(N)nccn12 [Example 103, (S,E)-4-(8-amino-3-(1-(4-methoxybut-2-enoyl)pyrrolidin-2-yl)imidazo[1,5-a]pyrazin-1-yl)-2-methoxy-N-(pyridin-2-yl)benzamide] | 10 to 100 |  | ≥ 1000 | ≥ 1000 | ≥ 1 | ≥ 1 | <0.1 |  |  |  |  |
| Nc1nccn2c([C@@H]3CCCN3C(=O)/C=C/c3ccccc3)nc(-c3ccc(C(=O)Nc4ccccn4)cc3)c12 [Example 104, (S,E)-4-(8-amino-3-(1-cinnamoylpyrrolidin-2-yl)imidazo[1,5-a]pyrazin-1-yl)-N-(pyridin-2-yl)benzamide] | 100 to 1000 | <1 | ≥ 1000 | ≥ 1000 | ≥ 1 |  |  |  | 0.1 to 1 | <1 |  |
| C[C@H](NC(=O)c1ccnc(Cl)n1)c1nc(-c2ccc(C(=O)Nc3ccccn3)cc2)c2c(N)nccn12 [Example 105, (S)-N-(1-(8-amino-1-(4-(pyridin-2-ylcarbamoyl)phenyl)imidazo[1,5-a]pyrazin-3-yl)ethyl)-2-chloropyrimidine-4-carboxamide] | 10 to 100 |  | ≥ 1000 | ≥ 1000 | ≥ 1 | ≥ 1 | <0.1 |  |  |  |  |
| CC#CC(=O)N1CCC[C@H]1c1nc(-c2ccc(C(=O)Nc3cc(F)ccn3)cc2)c2c(N)nccn12 [Example 106, (S)-4-(8-amino-3-(1-but-2-ynoylpyrrolidin-2-yl)imidazo[1,5-a]pyrazin-1-yl)-N-(4-fluoropyridin-2-yl)benzamide] | 10 to 100 |  | ≥ 1000 | ≥ 1000 | ≥ 1 | ≥ 1 | <0.1 |  |  |  |  |
| CCCc1ccnc(NC(=O)c2ccc(-c3nc([C@@H]4CCCCN4C(=O)c4ccnc(Cl)n4)n4ccnc(N)c34)cc2)c1 [Example 107, (S)-4-(8-amino-3-(1-(2-chloropyrimidine-4-carbonyl)piperidin-2-yl)imidazo[1,5-a]pyrazin-1-yl)-N-(4-propylpyridin-2-yl)benzamide] |  |  | ≥ 1000 | ≥ 1000 | ≥ 1 | ≥ 1 |  | < 10 |  |  |  |
| COC/C=C/C(=O)N1CCCC[C@H]1c1nc(-c2ccc(C(=O)Nc3cc(C(F)(F)F)ccn3)cc2)c2c(N)nccn12 [Example 108, (S,E)-4-(8-amino-3-(1-(4-methoxybut-2-enoyl)piperidin-2-yl)imidazo[1,5-a]pyrazin-1-yl)-N-(4-(trifluoromethyl)pyridin-2-yl)benzamide] |  |  | ≥ 1000 | ≥ 1000 |  | ≥ 1 |  | < 10 |  |  | ≥ 1 |
